pIC50: −log10 of the molar value. Bridge positions count the residues as written; N and C are the ends. Square brackets hold non-standard residues; d marks the D form. Peptide text beside a SMILES is read from it. Nle = CCCC[C@H](N)C(=O)O
Molecular target: T1, human Kv1.3 voltage-gated K+ channel (Homo sapiens, UniProt P22001)
T1 construct: host or cells: CHO-DUKX
Assay: cell-based
Details: inhibition of thallium flux, CHO-DUKX cells with human Kv1.3; read-out: IC50

T1 sequence (P22001 whole entry): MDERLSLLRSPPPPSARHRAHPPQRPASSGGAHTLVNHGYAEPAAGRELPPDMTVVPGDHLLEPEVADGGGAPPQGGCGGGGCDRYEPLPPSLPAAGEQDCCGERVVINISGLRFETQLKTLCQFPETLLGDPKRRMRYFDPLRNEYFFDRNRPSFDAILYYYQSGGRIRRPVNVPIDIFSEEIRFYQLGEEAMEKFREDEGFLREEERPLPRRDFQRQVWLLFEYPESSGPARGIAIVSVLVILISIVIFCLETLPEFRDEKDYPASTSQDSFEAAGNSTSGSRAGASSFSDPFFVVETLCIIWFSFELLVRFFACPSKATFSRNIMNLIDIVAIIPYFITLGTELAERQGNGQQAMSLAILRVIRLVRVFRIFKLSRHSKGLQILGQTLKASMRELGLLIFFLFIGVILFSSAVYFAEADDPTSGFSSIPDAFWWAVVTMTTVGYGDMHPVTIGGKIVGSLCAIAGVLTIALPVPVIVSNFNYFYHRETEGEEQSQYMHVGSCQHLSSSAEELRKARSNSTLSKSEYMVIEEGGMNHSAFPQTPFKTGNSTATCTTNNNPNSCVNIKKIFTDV

Structure (SMILES) | pIC50
CC[C@H](C)[C@@H]1NC(=O)[C@H](CCCCN)NC(=O)[C@H](CC(C)C)NC(=O)[C@@H]2CSSC[C@@H](C(=O)N[C@@H](Cc3ccc(O)cc3)C(=O)N3CCC[C@H]3C(=O)N[C@@H](CCCNC(=N)N)C(N)=O)NC(=O)[C@H](CCCCN)NC(=O)[C@@H]3CSSC[C@H](NC(=O)[C@H](CCC(=O)O)NC(=O)[C@H](C(C)C)NC(=O)[C@H](CO)NC(=O)[C@H](C)NC(=O)[C@H](CO)NC(=O)[C@@H](NC(=O)[C@H](CCCNC(=N)N)NC(=O)[C@H](CCSC)NC(=O)[C@H](CC(=O)O)NC(=O)[C@H](CCSC)NC(=O)[C@@H](N)CC(N)=O)CSSC[C@H](NC(=O)[C@H](CCCCN)NC(=O)CNC(=O)[C@H](Cc4ccccc4)NC(=O)[C@H]([C@@H](C)CC)NC(=O)[C@H](CO)NC(=O)CNC1=O)C(=O)N[C@@H](CCSC)C(=O)N[C@@H](CC(N)=O)C(=O)N[C@@H](CCCCN)C(=O)N[C@@H](CCCCN)C(=O)N3)C(=O)N[C@@H](CCCCN)C(=O)N[C@@H](CCC(N)=O)C(=O)N[C@@H](CCCCN)C(=O)N2 [Compound 57] (H-NMDMRCSASVECKQKCLKIGSIFGKCMNKKCKCYPR-NH2; disulfide 6-26, 12-31, 16-33) | 9.96
CC[C@H](C)[C@@H]1NC(=O)[C@H](C)NC(=O)[C@H](CCCCN)NC(=O)[C@H](CC(C)C)NC(=O)[C@@H]2CSSC[C@@H](C(=O)N[C@@H](Cc3ccc(O)cc3)C(=O)N3CCC[C@H]3C(=O)N[C@@H](CCCNC(=N)N)C(=O)O)NC(=O)[C@H](CCCCN)NC(=O)[C@@H]3CSSC[C@H](NC(=O)[C@H](CCC(=O)O)NC(=O)[C@H](C(C)C)NC(=O)[C@H](CO)NC(=O)[C@H](C)NC(=O)[C@H](CO)NC(=O)[C@@H](NC(=O)[C@H](CCCNC(=N)N)NC(=O)[C@H](CCSC)NC(=O)[C@H](CC(=O)O)NC(=O)[C@H](CCSC)NC(=O)[C@@H](N)CC(N)=O)CSSC[C@H](NC(=O)[C@H](CCCCN)NC(=O)CNC(=O)[C@H](Cc4ccccc4)NC(=O)CNC(=O)[C@H](CCCNC(=N)N)NC(=O)CNC1=O)C(=O)N[C@@H](CCSC)C(=O)N[C@@H](CC(N)=O)C(=O)N[C@@H](CCCCN)C(=O)N[C@@H](CCCCN)C(=O)N3)C(=O)N[C@@H](CCCCN)C(=O)N[C@@H](CCC(N)=O)C(=O)N[C@@H](CCCCN)C(=O)N2 [Compound 4] (H-NMDMRCSASVECKQKCLKAIGRGFGKCMNKKCKCYPR-OH; disulfide 6-27, 12-32, 16-34) | 9.54
CC[C@H](C)[C@@H]1NC(=O)[C@H](C)NC(=O)[C@H](CCCCN)NC(=O)[C@H](CC(C)C)NC(=O)[C@@H]2CSSC[C@@H](C(=O)N[C@@H](Cc3ccc(O)cc3)C(=O)N3CCC[C@H]3C(=O)N[C@@H](CCCNC(=N)N)C(=O)O)NC(=O)[C@H](CCCCN)NC(=O)[C@@H]3CSSC[C@H](NC(=O)[C@H](CCC(=O)O)NC(=O)[C@H](C(C)C)NC(=O)[C@H](CO)NC(=O)[C@H](C)NC(=O)[C@H](CO)NC(=O)[C@@H](NC(=O)[C@H](CCCNC(=N)N)NC(=O)[C@@H](NC(=O)[C@H](CC(=O)O)NC(=O)[C@H](CCSC)NC(=O)[C@@H](N)CC(N)=O)C(C)C)CSSC[C@H](NC(=O)[C@H](CCCCN)NC(=O)CNC(=O)[C@H](Cc4ccccc4)NC(=O)[C@H]([C@@H](C)CC)NC(=O)[C@H](CO)NC(=O)CNC1=O)C(=O)N[C@@H](CCSC)C(=O)N[C@@H](CC(N)=O)C(=O)N[C@@H](CCCCN)C(=O)N[C@@H](CCCCN)C(=O)N3)C(=O)N[C@@H](CCCCN)C(=O)N[C@@H](CCC(N)=O)C(=O)N[C@@H](CCCCN)C(=O)N2 [Compound 9] (H-NMDVRCSASVECKQKCLKAIGSIFGKCMNKKCKCYPR-OH; disulfide 6-27, 12-32, 16-34) | 9.28
CCCC[C@H](NC(=O)[C@@H]1CCCN1)C(=O)N[C@@H](CCC(=O)O)C(=O)N[C@@H](CCCC)C(=O)N[C@@H](CCCNC(=N)N)C(=O)N[C@H]1CSSC[C@@H]2NC(=O)[C@H](CCCCN)NC(=O)CNC(=O)[C@H](Cc3ccccc3)NC(=O)[C@H]([C@@H](C)CC)NC(=O)[C@H](CO)NC(=O)CNC(=O)[C@H]([C@@H](C)CC)NC(=O)[C@H](C)NC(=O)[C@H](C)NC(=O)[C@H](CC(C)C)NC(=O)[C@@H]3CSSC[C@@H](C(=O)N[C@@H](Cc4ccc(O)cc4)C(=O)N4CCC[C@H]4C(=O)N[C@@H](CCCNC(=N)N)C(=O)N[C@@H](Cc4c[nH]cn4)C(=O)N[C@@H](CCCNC(=N)N)C(=O)O)NC(=O)[C@H](CCCCN)NC(=O)[C@H](CSSC[C@H](NC(=O)[C@H](CCC(=O)O)NC(=O)[C@H](C(C)C)NC(=O)[C@H](CO)NC(=O)[C@H](C)NC(=O)[C@H](CO)NC1=O)C(=O)N[C@@H](CCCCN)C(=O)N[C@@H](CCC(N)=O)C(=O)N[C@@H](CCCCN)C(=O)N3)NC(=O)[C@H](CCCCN)NC(=O)[C@H](CCCCN)NC(=O)[C@H](CC(N)=O)NC(=O)[C@H](CCCC)NC2=O [Compound 129] (H-P[Nle]E[Nle]RCSASVECKQKCLAAIGSIFGKC[Nle]NKKCKCYPRHR-OH; disulfide 6-27, 12-32, 16-34) | 9.84
CCCC[C@@H]1NC(=O)[C@@H]2CSSC[C@H](NC(=O)[C@H](CCCNC(=N)N)NC(C)=O)C(=O)N[C@@H](CO)C(=O)N[C@@H](C)C(=O)N[C@@H](CO)C(=O)N[C@@H](C(C)C)C(=O)N[C@@H](CCC(=O)O)C(=O)N[C@H]3CSSC[C@H](NC(=O)[C@H](CCCCN)NC(=O)[C@H](CCCCN)NC(=O)[C@H](CC(N)=O)NC1=O)C(=O)N[C@@H](CCCCN)C(=O)N[C@H](C(=O)N[C@@H](Cc1ccc(O)cc1)C(=O)N1CCC[C@H]1C(=O)N[C@@H](CCCNC(=N)N)C(=O)O)CSSC[C@H](NC(=O)[C@H](CCCCN)NC(=O)[C@H](CCC(N)=O)NC(=O)[C@H](CCCCN)NC3=O)C(=O)N[C@@H](CC(C)C)C(=O)N[C@@H](CCCCN)C(=O)N[C@@H](C)C(=O)N[C@@H]([C@@H](C)CC)C(=O)NCC(=O)N[C@@H](CO)C(=O)N[C@@H]([C@@H](C)CC)C(=O)N[C@@H](Cc1ccccc1)C(=O)NCC(=O)N[C@@H](CCCCN)C(=O)N2 [Compound 113] (Ac-RCSASVECKQKCLKAIGSIFGKC[Nle]NKKCKCYPR-OH; disulfide 2-23, 8-28, 12-30) | 9.47
CCCC[C@@H]1NC(=O)[C@@H]2CSSC[C@H](NC(=O)[C@H](CCCNC(=N)N)NC(=O)[C@H](CCCC)NC(=O)[C@H](CCC(=O)O)NC(=O)[C@H](CCCC)NC(=O)[C@H]3CCCN3)C(=O)N[C@@H](CO)C(=O)N[C@@H](C)C(=O)N[C@@H](CO)C(=O)N[C@@H](C(C)C)C(=O)N[C@@H](CCC(=O)O)C(=O)N[C@H]3CSSC[C@H](NC(=O)[C@H](CCCCN)NC(=O)[C@H](CCCCN)NC(=O)[C@H](CC(N)=O)NC1=O)C(=O)N[C@@H](CCCCN)C(=O)N[C@H](C(=O)N[C@@H](Cc1ccc(O)cc1)C(=O)N1CCC[C@H]1C(=O)N[C@@H](CCCNC(=N)N)C(=O)O)CSSC[C@H](NC(=O)[C@H](CCCCN)NC(=O)[C@H](CCC(N)=O)NC(=O)[C@H](CCCCN)NC3=O)C(=O)N[C@@H](CC(C)C)C(=O)N[C@@H](C)C(=O)N[C@@H](C)C(=O)N[C@@H]([C@@H](C)CC)C(=O)NCC(=O)N[C@@H](CO)C(=O)N[C@@H]([C@@H](C)CC)C(=O)N[C@@H](Cc1ccccc1)C(=O)NCC(=O)N[C@@H](CCCCN)C(=O)N2 [Compound 119] (H-[dP][Nle]E[Nle]RCSASVECKQKCLAAIGSIFGKC[Nle]NKKCKCYPR-OH; disulfide 6-27, 12-32, 16-34) | 9.20
CCCC[C@@H]1NC(=O)[C@@H]2CSSC[C@H](NC(C)=O)C(=O)N[C@@H](CO)C(=O)N[C@@H](C)C(=O)N[C@@H](CO)C(=O)N[C@@H](C(C)C)C(=O)N[C@@H](CCC(=O)O)C(=O)N[C@H]3CSSC[C@H](NC(=O)[C@H](CCCCN)NC(=O)[C@H](CCCCN)NC(=O)[C@H](CC(N)=O)NC1=O)C(=O)N[C@@H](CCCCN)C(=O)N[C@H](C(=O)N[C@@H](Cc1ccc(O)cc1)C(=O)NCC(N)=O)CSSC[C@H](NC(=O)[C@H](CCCCN)NC(=O)[C@H](CCC(N)=O)NC(=O)[C@H](CCCCN)NC3=O)C(=O)N[C@@H](CC(C)C)C(=O)N[C@@H](CCCCN)C(=O)N[C@@H](C)C(=O)N[C@@H]([C@@H](C)CC)C(=O)NCC(=O)N[C@@H](CO)C(=O)N[C@@H]([C@@H](C)CC)C(=O)N[C@@H](Cc1ccccc1)C(=O)NCC(=O)N[C@@H](CCCCN)C(=O)N2 [Compound 111] (Ac-CSASVECKQKCLKAIGSIFGKC[Nle]NKKCKCYG-NH2; disulfide 1-22, 7-27, 11-29) | 8.68
CCCC[C@H](NC(=O)[C@@H]1CCCN1)C(=O)N[C@@H](CCC(=O)O)C(=O)N[C@@H](CCCC)C(=O)N[C@@H](CCCNC(=N)N)C(=O)N[C@H]1CSSC[C@@H]2NC(=O)[C@H](CCCCN)NC(=O)CNC(=O)[C@H](Cc3ccccc3)NC(=O)[C@H]([C@@H](C)CC)NC(=O)[C@H](CO)NC(=O)CNC(=O)[C@H]([C@@H](C)CC)NC(=O)[C@H](C)NC(=O)[C@H](C)NC(=O)[C@H](CC(C)C)NC(=O)[C@@H]3CSSC[C@@H](C(=O)N[C@@H](Cc4ccc(O)cc4)C(=O)N4CCC[C@H]4C(=O)N[C@@H](CCCNC(=N)N)C(=O)O)NC(=O)[C@H](CCCCN)NC(=O)[C@H](CSSC[C@H](NC(=O)[C@H](CCC(=O)O)NC(=O)[C@H](C(C)C)NC(=O)[C@H](CO)NC(=O)[C@H](C)NC(=O)[C@H](CO)NC1=O)C(=O)N[C@@H](CC(C)C)C(=O)N[C@@H](CCC(N)=O)C(=O)N[C@@H](CCCCN)C(=O)N3)NC(=O)[C@H](CCCCN)NC(=O)[C@H](CCCCN)NC(=O)[C@H](CC(N)=O)NC(=O)[C@H](CCCC)NC2=O [Compound 140] (H-P[Nle]E[Nle]RCSASVECLQKCLAAIGSIFGKC[Nle]NKKCKCYPR-OH; disulfide 6-27, 12-32, 16-34) | 8.45
CCCC[C@H](NC(=O)[C@H](CC(=O)O)NC(=O)[C@H](CCCC)NC(=O)[C@@H](N)CO)C(=O)N[C@@H](CCCNC(=N)N)C(=O)N[C@H]1CSSC[C@@H]2NC(=O)[C@H](CCCCN)NC(=O)CNC(=O)[C@H](Cc3ccccc3)NC(=O)[C@H]([C@@H](C)CC)NC(=O)[C@H](CO)NC(=O)CNC(=O)[C@H]([C@@H](C)CC)NC(=O)[C@H](C)NC(=O)CNC(=O)[C@H](CC(C)C)NC(=O)[C@@H]3CSSC[C@@H](C(=O)N[C@@H](Cc4ccc(O)cc4)C(=O)N4CCC[C@H]4C(=O)N[C@@H](CCCNC(=N)N)C(N)=O)NC(=O)[C@H](CCCCN)NC(=O)[C@H](CSSC[C@H](NC(=O)[C@H](CCC(=O)O)NC(=O)[C@H](C(C)C)NC(=O)[C@H](CO)NC(=O)[C@H](C)NC(=O)[C@H](CO)NC1=O)C(=O)N[C@@H](CCCCN)C(=O)N[C@@H](CCC(N)=O)C(=O)N[C@@H](CCCCN)C(=O)N3)NC(=O)[C@H](CCCCN)NC(=O)[C@H](CCCCN)NC(=O)[C@H](CC(N)=O)NC(=O)[C@H](CCSC)NC2=O [Compound 77] (H-S[Nle]D[Nle]RCSASVECKQKCLGAIGSIFGKCMNKKCKCYPR-NH2; disulfide 6-27, 12-32, 16-34) | 9.89

— US11780893B2, “Kv1.3 blockers” (Zealand Pharma A/S, priority 2019, dated 2023)
